Molecular target: Mu opioid receptor (Homo sapiens, UniProt P35372)
Sequence (P35372 whole entry): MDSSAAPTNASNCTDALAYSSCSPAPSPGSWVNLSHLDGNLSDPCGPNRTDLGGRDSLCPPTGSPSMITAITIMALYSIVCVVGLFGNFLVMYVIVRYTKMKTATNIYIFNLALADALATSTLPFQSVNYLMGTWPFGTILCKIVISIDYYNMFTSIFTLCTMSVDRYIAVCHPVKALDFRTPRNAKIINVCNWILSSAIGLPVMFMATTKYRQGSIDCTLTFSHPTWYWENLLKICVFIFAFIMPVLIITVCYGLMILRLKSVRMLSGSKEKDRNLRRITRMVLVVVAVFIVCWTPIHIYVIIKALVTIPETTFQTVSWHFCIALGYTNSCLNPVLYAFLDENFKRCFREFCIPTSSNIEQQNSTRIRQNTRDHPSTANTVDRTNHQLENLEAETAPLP

In the case of C[C@@H](NC(=O)[C@@H](N)Cc1ccc(O)cc1)C(=O)NCC(=O)N(C)[C@@H](Cc1ccccc1)C(=O)NCCO [DAMGO Control, DAMGO], the “Functional GTPgS Mu Efficacy % DAMGO” value is reported as 100 ± 0%.
